What was measured:
[1] = biological target: LIM domain kinase 2 (Homo sapiens) (UniProt P53671); experiment: Inhibition of wild-type human full length LIMK2 (M1 to P638 residues) expressed in bacterial expression system assessed as residual activity at 1 uM by Kinomescan method relative to control
[2] = test system: Tyrosine-protein kinase ABL1 (Homo sapiens), P00519 [F317I]; experiment: Inhibition of human non-phosphorylated ABL1 F317I mutant (S229 to K512 residues) expressed in mammalian expression system assessed as residual activity at 1 uM by Kinomescan method relative to control
[3] = biological target: Casein kinase II subunit alpha (Homo sapiens) (UniProt P68400); experiment: Inhibition of wild-type human full length CSNK2A1 (M1 to Q391 residues) expressed in mammalian expression system assessed as residual activity at 1 uM by Kinomescan method relative to control
[4] = AUC (0 to t) in Sprague-Dawley rat at 1 mg/kg, iv by LC-MS/MS method; type: ADME, organism-based; conditions: in vivo
[5] = biological target: MAP/microtubule affinity-regulating kinase 3 (Homo sapiens) (UniProt P27448); experiment: Inhibition of wild-type human full length MARK3 (M1 to L729 residues) expressed in bacterial expression system assessed as residual activity at 1 uM by Kinomescan method relative to control
[6] = test system: Phosphatidylinositol 4,5-bisphosphate 3-kinase catalytic subunit alpha isoform (Homo sapiens), P42336 [C420R]; experiment: Inhibition of human partial length PIK3CA C420R mutant (R108 to N1068 residues) expressed in mammalian expression system assessed as residual activity at 1 uM by Kinomescan method relative to control
[7] = biological target: Ribosomal protein S6 kinase alpha-5 (Homo sapiens) (UniProt O75582); experiment: Inhibition of wild-type human partial length C-terminal RPS6KA5 kinase domain 2 (V390 to T718 residues) expressed in bacterial expression system assessed as residual activity at 1 uM by Kinomescan method relative to control
[8] = biological target: Serine/threonine-protein kinase 16 (Homo sapiens) (UniProt O75716); experiment: Inhibition of wild-type human partial length STK16 (G11 to I305 residues) expressed in bacterial expression system assessed as residual activity at 1 uM by Kinomescan method relative to control
[9] = test system: Epidermal growth factor receptor (Homo sapiens), P00533 [UNDEFINED MUTATION]; experiment: Inhibition of human partial length EGFR E746-A750del mutant expressed in bacterial expression system assessed as residual activity at 1 uM by Kinomescan method relative to control
[10] = test system: Receptor-type tyrosine-protein kinase FLT3 (Homo sapiens), P36888 [N841I]; experiment: Inhibition of human partial length FLT3 N841I mutant (V592 to Y969 residues) expressed in bacterial expression system assessed as residual activity at 1 uM by Kinomescan method relative to control
MV4-11 = experiment: Growth inhibition of human MV411 cells; type: functional; conditions: Homo sapiens, MV4-11
[11] = biological target: Dual specificity protein kinase TTK (Homo sapiens) (UniProt P33981); experiment: Inhibition of wild-type human partial length TTK (N505 to V798 residues) expressed in bacterial expression system assessed as residual activity at 1 uM by Kinomescan method relative to control
[12] = test system: Receptor-type tyrosine-protein kinase FLT3 (Homo sapiens), P36888 [D835V]; experiment: Inhibition of human partial length FLT3 D835V mutant (V592 to Y969 residues) expressed in bacterial expression system assessed as residual activity at 1 uM by Kinomescan method relative to control
[13] = biological target: Serine/threonine-protein kinase MRCK beta (Homo sapiens) (UniProt Q9Y5S2); experiment: Inhibition of wild-type human partial length MRCKB (L56 to S417 residues) expressed in bacterial expression system assessed as residual activity at 1 uM by Kinomescan method relative to control
[14] = Elimination half-life in Sprague-Dawley rat at 10 mg/kg, po by LC-MS/MS method; type: ADME, organism-based; conditions: in vivo, read-out: beta t1/2 (converted)
[15] = biological target: Membrane-associated tyrosine- and threonine-specific cdc2-inhibitory kinase (Homo sapiens) (UniProt Q99640); experiment: Inhibition of wild-type human partial length PKMYT1 (A88 to G366 residues) expressed in bacterial expression system assessed as residual activity at 1 uM by Kinomescan method relative to control
[16] = biological target: 1-phosphatidylinositol 3-phosphate 5-kinase (Homo sapiens) (UniProt Q9Y2I7); experiment: Inhibition of wild-type human partial length PIKFYVE (F1512 to C2098 residues) expressed in mammalian expression system assessed as residual activity at 1 uM by Kinomescan method relative to control
[17] = biological target: SRSF protein kinase 3 (Homo sapiens) (UniProt Q9UPE1); experiment: Inhibition of wild-type human partial length SRPK3 (P41 to P567 residues) expressed in bacterial expression system assessed as residual activity at 1 uM by Kinomescan method relative to control
[18] = biological target: Serine/threonine-protein kinase 38 (Homo sapiens) (UniProt Q15208); experiment: Inhibition of wild-type human partial length NDR1 (N33 to E449 residues) expressed in mammalian expression system assessed as residual activity at 1 uM by Kinomescan method relative to control
[19] = biological target: Macrophage-stimulating protein receptor (Homo sapiens) (UniProt Q04912); experiment: Inhibition of wild-type human partial length MST1R (I1057 to L1363 residues) expressed in bacterial expression system assessed as residual activity at 1 uM by Kinomescan method relative to control
[20] = biological target: Mitogen-activated protein kinase kinase kinase 10 (Homo sapiens) (UniProt Q02779); experiment: Inhibition of wild-type human partial length MLK2 (V52 to W380 residues) expressed in bacterial expression system assessed as residual activity at 1 uM by Kinomescan method relative to control
[21] = biological target: Vascular endothelial growth factor receptor 2 (Homo sapiens) (UniProt P35968); experiment: Inhibition of wild-type human partial length VEGFR2 (R787 to P1253 residues) expressed in mammalian expression system assessed as residual activity at 1 uM by Kinomescan method relative to control
[22] = test system: Tyrosine-protein kinase ABL1 (Homo sapiens), P00519 [M351T]; experiment: Inhibition of human phosphorylated ABL1 M351T mutant (S229 to K512 residues) expressed in mammalian expression system assessed as residual activity at 1 uM by Kinomescan method relative to control
SU-DHL-2 = experiment: Growth inhibition of human SU-DHL-2 cells; type: functional; conditions: Homo sapiens, SU-DHL-2
[23] = biological target: Dual specificity testis-specific protein kinase 1 (Homo sapiens) (UniProt Q15569); experiment: Inhibition of wild-type human […] length TESK1 (R37 to S626 residues) expressed in bacterial expression system assessed as residual activity at 1 uM by Kinomescan method relative to control
[24] = biological target: Mitogen-activated protein kinase kinase kinase kinase 1 (Homo sapiens) (UniProt Q92918); experiment: Inhibition of wild-type human full length HPK1 (M1 to R799 residues) expressed in bacterial expression system assessed as residual activity at 1 uM by Kinomescan method relative to control
Chain of Mitogen-activated protein kinase kinase kinase kinase 1 (Homo sapiens) (Q92918 whole entry, looked up, the tested form may be a part): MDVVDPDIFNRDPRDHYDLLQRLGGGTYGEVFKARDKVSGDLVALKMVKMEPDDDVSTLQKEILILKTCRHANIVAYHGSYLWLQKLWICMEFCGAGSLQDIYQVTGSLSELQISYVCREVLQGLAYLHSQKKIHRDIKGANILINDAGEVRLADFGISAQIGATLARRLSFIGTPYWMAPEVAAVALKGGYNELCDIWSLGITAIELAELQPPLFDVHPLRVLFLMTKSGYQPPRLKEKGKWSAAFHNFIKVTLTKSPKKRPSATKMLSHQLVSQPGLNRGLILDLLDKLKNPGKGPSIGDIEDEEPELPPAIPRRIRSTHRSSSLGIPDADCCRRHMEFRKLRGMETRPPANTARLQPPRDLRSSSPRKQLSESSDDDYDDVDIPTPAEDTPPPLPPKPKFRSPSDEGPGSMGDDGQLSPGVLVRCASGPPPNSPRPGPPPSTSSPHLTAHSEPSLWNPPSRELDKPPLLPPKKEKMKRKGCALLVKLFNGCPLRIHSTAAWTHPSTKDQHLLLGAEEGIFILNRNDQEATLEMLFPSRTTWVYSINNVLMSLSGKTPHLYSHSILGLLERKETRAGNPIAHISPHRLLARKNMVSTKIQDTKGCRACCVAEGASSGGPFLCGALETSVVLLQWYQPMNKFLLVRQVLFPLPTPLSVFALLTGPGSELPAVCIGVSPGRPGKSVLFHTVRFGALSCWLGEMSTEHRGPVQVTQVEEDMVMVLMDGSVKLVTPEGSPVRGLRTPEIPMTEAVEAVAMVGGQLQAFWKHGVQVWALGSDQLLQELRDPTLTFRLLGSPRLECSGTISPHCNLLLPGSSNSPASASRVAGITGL

Chain of Serine/threonine-protein kinase 38 (Homo sapiens) (Q15208 2-465 limits assumed): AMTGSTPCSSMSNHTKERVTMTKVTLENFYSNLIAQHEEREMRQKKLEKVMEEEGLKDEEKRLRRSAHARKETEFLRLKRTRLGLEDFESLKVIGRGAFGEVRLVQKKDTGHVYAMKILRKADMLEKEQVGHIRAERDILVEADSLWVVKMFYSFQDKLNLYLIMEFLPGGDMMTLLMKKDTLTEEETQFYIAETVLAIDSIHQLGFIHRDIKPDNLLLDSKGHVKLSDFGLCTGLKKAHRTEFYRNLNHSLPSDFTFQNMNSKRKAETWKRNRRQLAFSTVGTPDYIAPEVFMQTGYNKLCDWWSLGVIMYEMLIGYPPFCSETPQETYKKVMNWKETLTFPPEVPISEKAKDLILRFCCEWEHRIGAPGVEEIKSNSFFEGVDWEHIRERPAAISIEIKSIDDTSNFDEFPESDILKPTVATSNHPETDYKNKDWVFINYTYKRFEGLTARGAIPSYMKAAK
Chain of Mitogen-activated protein kinase kinase kinase 10 (Homo sapiens) (Q02779 whole entry, looked up, the tested form may be a part): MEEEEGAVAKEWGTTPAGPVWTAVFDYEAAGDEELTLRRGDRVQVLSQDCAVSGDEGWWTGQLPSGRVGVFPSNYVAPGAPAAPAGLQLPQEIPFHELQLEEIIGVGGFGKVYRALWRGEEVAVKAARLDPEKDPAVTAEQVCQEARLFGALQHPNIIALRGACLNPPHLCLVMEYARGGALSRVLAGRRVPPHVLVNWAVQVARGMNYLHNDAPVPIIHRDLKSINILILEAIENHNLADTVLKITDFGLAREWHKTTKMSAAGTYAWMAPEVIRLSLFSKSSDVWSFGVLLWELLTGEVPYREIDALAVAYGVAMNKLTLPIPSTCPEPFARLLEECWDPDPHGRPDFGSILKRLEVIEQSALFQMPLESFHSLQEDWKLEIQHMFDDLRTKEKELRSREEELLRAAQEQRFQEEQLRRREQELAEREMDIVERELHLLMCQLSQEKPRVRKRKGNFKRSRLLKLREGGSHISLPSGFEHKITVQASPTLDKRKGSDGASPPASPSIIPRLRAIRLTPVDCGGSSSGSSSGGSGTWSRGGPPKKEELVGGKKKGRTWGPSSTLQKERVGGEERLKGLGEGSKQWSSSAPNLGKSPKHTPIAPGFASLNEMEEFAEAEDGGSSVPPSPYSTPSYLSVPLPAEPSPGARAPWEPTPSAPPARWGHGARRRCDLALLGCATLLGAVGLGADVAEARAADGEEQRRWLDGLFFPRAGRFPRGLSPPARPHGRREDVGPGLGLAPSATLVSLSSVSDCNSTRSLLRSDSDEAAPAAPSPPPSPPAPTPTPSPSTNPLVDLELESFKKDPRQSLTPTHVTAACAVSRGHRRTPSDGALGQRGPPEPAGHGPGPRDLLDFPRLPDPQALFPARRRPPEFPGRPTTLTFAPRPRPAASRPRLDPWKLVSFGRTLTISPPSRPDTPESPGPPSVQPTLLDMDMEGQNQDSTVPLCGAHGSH
Chain of MAP/microtubule affinity-regulating kinase 3 (Homo sapiens) (P27448 whole entry, looked up, the tested form may be a part, canonical isoform): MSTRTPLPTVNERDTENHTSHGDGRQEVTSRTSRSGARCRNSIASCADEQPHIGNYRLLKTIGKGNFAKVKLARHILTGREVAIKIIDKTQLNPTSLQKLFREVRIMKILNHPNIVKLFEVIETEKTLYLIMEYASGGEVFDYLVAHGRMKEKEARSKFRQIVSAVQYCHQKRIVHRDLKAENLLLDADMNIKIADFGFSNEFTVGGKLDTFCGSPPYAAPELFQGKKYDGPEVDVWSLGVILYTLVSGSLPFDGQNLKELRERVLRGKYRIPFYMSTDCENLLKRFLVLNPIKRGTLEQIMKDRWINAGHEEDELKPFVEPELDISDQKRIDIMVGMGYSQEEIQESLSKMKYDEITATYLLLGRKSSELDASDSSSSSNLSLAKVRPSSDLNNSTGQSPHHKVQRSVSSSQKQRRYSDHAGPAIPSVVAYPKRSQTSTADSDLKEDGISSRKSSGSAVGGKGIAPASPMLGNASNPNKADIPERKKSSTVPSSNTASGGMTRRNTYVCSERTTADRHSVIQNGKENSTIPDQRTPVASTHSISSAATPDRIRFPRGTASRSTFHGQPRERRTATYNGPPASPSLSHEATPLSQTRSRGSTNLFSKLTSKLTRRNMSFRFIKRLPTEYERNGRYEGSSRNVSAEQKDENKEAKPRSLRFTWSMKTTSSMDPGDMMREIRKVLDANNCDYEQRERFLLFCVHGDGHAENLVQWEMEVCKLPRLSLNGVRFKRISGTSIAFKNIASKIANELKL
Chain of Vascular endothelial growth factor receptor 2 (Homo sapiens) (P35968 whole entry, the tested form may be a part): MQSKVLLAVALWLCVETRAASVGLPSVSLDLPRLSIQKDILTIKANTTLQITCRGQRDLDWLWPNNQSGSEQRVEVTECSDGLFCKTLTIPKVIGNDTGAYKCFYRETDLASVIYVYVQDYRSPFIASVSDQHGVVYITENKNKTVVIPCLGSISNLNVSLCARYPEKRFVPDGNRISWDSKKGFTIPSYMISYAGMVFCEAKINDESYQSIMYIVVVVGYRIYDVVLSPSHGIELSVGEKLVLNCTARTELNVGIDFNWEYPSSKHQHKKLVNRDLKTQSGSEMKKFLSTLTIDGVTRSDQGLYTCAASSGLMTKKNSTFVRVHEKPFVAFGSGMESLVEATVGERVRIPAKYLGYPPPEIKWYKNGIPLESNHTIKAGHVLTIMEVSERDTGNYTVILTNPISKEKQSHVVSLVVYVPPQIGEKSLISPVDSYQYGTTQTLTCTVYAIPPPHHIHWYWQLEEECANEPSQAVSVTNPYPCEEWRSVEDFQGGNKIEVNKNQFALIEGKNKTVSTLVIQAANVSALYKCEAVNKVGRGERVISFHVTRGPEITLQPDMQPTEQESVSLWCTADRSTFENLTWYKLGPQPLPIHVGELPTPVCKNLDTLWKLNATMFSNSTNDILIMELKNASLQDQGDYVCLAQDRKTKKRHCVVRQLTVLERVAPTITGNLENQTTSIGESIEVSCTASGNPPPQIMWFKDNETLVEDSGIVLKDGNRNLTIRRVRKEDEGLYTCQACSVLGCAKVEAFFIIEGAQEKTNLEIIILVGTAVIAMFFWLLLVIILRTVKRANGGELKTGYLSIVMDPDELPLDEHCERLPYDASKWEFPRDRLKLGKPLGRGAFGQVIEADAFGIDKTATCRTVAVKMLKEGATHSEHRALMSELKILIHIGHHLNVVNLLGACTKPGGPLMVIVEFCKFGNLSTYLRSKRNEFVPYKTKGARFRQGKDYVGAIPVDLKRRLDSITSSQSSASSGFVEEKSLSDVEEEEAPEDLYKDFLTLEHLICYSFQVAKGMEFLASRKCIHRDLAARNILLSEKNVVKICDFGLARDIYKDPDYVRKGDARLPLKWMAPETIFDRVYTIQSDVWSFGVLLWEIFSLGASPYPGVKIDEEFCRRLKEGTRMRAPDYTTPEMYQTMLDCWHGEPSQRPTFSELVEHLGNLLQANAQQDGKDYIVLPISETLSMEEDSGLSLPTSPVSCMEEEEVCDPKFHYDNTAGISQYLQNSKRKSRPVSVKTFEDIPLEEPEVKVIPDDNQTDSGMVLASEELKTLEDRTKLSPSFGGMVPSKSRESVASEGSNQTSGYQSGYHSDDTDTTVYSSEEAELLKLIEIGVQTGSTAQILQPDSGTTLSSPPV
Chain of SRSF protein kinase 3 (Homo sapiens) (Q9UPE1 whole entry, the tested form may be a part): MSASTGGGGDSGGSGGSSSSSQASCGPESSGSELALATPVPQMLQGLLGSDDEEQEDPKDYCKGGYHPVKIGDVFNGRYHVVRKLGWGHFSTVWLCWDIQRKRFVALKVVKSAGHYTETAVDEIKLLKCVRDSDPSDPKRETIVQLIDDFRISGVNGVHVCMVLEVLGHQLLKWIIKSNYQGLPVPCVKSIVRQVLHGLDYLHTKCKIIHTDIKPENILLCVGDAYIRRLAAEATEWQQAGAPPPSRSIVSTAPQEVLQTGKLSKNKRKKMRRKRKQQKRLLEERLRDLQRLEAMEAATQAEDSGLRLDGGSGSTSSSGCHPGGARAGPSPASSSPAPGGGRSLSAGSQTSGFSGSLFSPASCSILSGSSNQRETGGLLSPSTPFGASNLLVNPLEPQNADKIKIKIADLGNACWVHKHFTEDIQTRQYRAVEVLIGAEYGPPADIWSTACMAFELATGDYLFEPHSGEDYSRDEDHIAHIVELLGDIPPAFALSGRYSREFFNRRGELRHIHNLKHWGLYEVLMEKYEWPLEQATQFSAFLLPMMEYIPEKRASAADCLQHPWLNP

Compound: C=CC(=O)Nc1cc(Nc2cc(-c3cccc(NC(=O)c4ccc(C(C)(C)C)cc4)c3C)cn(C)c2=O)ccc1C(=O)N1CCOCC1
- Activity [1]: 100%
- Activity [2]: 78%
- Activity [3]: 100%
- AUC(0-t) [4]: 0.182 µg·h/mL
- Activity [5]: 100%
- Activity [6]: 100%
- Activity [7]: 100%
- Activity [8]: 99%
- Activity [9]: 80%
- Activity [10]: 100%
- GI50 (MV4-11): 2.1 µM
- Activity [11]: 99%
- Activity [12]: 70%
- Activity [13]: 98%
- half-life [14]: 1.33 h
- Activity [15]: 91%
- Activity [16]: 96%
- Activity [17]: 81%
- Activity [18]: 93%
- Activity [19]: 97%
- Activity [20]: 100%
- Activity [21]: 97%
- Activity [22]: 97%
- GI50 (SU-DHL-2): 3 µM
- Activity [23]: 90%
- Activity [24]: 100%

— ChEMBL document CHEMBL4024706 (Eur J Med Chem, 2017)
